Entries after “also recorded” stand apart in the source; their conditions may differ.
Tests used:
CD8^+ T cells = experiment: Cytotoxic T cell (CTL) assay; format: cell-based; settings: 500 nM
Procedure: Without being bound by any theory, CD8^+ T cells have two primary effector functions: (1) produce large amounts of IFN-γ (which activates macrophages), and (2) cytolytic activity. […] The targets were B lymphoblasts from lipopolysaccharide (LPS) treated cultures. The assay was performed by incubating different ratios of effectors:targets for 4 hours.

ID8 ovarian cancer = experiment: ID8 syngeneic orthotropic ovarian cancer model; format: in vivo, mice
KrasL2 NSCLC = KrasL2 NSCLC model; settings: in vivo
[1] = Glutathione binding and depletion in vitro; format: in vitro ADME
CYP3A4 = CYP3A4 (Homo sapiens, UniProt P08684); experiment: In vitro CYP metabolism and CYP interaction studies; format: in vitro ADME
Chain of CYP3A4 (P08684 whole entry): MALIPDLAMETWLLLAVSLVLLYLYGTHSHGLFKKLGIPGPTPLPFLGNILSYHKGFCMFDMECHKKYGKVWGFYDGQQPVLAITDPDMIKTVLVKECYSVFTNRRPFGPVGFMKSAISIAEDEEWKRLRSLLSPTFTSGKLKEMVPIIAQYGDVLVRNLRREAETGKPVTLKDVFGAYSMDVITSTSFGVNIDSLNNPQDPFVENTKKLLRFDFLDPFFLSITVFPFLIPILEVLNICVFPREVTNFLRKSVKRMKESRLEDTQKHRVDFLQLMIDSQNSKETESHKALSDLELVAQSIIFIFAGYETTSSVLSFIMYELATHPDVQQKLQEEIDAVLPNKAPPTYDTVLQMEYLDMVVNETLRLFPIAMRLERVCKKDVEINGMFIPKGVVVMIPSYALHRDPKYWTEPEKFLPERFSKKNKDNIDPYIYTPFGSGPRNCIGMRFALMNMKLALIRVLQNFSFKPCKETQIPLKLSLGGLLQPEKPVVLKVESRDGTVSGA

[2] = test system: KPC derived mouse pancreatic cancer cells; experiment: Orthotopic pancreatic cancer model (KPC-derived cells); format: in vivo, C57BL/6 mice; settings: 15 mg/kg oral of each drug
Procedure: Orthotopic pancreatic cancer models in mice are clinically relevant, benefit from tissue site-specific pathology, and allow for study of metastasis. Qiu and Su, Methods Mol. Biol. 2013, 980, 215-223. A cell line derived from KrasG12D; Trp53R172H; Pdx1-Cre (KPC) mice was orthotopically implanted into the head of the pancreas after 35 passages. Based on the mice background from where the cell lines were generated, 1×10^6 cells were injected in C57BL/6 mice. Throughout the experiment, animals were provided with food and water ad libitum and subjected to a 12-h dark/light cycle. Animal studies were performed in accordance with the U.S. Public Health Service “Guidelines for the Care and Use of Laboratory Animals” (IACUC). After euthanization, pancreatic tumors were dissected out, weighed and single cell suspensions were prepared for flow cytometry analysis.
Results of the experiments are shown in FIG. 110, which illustrates tumor growth suppression in the orthotopic pancreatic cancer model. The statistical p-value (presumption against null hypothesis) is shown for each tested single active pharmaceutical ingredient and for the combination against the vehicle.
In this study, KrasG12D;Trp53R172H; Pdx1-Cre (KPC) derived mouse pancreatic cancer cells (10,000 cells) were injected into the pancreases of 24 female mice. After one week of expansion, drug treatment was started in mice developing pancreatic tumors.
Single cell suspensions from tumor samples were prepared as follows. Mouse tumor tissue was collected and stored in PBS/0.1% soybean trypsin inhibitor prior to enzymatic dissociation. […] Following surface staining, samples were acquired on a BD Fortessa and analyzed using FlowJo (Treestar) software.

EGFR = EGFR (Homo sapiens, UniProt P00533); experiment: EGF-induced EGFR phosphorylation in A431 cells (phosphoflow); settings: 10 μM (highest concentration tested)
Chain of EGFR (P00533 25-1210): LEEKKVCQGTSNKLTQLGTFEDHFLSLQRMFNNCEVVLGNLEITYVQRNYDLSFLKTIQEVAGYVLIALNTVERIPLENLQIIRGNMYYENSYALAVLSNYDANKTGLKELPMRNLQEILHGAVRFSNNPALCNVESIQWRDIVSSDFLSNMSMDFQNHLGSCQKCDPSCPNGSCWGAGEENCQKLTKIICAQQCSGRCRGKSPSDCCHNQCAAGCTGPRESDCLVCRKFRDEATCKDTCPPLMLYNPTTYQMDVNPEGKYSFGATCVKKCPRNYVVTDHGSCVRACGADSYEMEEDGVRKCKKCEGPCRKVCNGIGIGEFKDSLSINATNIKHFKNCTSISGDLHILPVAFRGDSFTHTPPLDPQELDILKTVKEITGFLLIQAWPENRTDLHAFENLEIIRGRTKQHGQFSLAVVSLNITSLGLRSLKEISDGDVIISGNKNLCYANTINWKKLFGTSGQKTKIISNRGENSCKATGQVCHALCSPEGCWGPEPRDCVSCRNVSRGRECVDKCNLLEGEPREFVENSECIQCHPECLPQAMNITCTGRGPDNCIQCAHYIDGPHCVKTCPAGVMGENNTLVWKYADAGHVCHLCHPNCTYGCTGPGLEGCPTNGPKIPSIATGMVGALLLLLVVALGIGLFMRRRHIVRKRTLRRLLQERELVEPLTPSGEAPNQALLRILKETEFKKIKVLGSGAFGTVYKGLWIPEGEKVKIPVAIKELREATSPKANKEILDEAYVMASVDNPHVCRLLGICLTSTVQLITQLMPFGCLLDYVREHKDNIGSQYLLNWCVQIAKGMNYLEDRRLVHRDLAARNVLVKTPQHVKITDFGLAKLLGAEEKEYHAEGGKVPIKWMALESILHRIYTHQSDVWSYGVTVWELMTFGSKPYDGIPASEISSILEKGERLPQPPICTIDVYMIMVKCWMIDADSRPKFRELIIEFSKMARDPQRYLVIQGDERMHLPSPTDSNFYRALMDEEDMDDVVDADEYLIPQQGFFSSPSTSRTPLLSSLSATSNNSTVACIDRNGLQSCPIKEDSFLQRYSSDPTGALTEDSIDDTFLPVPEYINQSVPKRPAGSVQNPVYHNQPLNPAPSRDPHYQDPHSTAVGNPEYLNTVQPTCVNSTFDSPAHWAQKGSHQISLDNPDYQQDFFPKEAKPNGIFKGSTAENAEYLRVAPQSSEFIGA

primary CLL cells = experiment: Rituximab ADCC assay (51Cr release), NK cells against autologous tumor cells; format: cell-based, human; settings: 1 μM; primary CLL samples
relapsed/refractory CLL = experiment: Clinical study of Formula (XVIII) in relapsed/refractory CLL/SLL
BTK = target: T1, BTK (Mus musculus, UniProt P35991); experiment: Molecular probe assay of irreversible BTK occupancy in MDSCs; format: in vivo, tumor bearing PDA mice; settings: 15 mg/kg BID; Day 8 at 4 hours post dose (N=5)
T1 construct: MDSCs were purified from tumor bearing PDA mice; endogenous in cells; host or cells: granulocytic and monocytic MDSCs purified from tumour-bearing PDA mice
T1 sequence (P35991 whole entry): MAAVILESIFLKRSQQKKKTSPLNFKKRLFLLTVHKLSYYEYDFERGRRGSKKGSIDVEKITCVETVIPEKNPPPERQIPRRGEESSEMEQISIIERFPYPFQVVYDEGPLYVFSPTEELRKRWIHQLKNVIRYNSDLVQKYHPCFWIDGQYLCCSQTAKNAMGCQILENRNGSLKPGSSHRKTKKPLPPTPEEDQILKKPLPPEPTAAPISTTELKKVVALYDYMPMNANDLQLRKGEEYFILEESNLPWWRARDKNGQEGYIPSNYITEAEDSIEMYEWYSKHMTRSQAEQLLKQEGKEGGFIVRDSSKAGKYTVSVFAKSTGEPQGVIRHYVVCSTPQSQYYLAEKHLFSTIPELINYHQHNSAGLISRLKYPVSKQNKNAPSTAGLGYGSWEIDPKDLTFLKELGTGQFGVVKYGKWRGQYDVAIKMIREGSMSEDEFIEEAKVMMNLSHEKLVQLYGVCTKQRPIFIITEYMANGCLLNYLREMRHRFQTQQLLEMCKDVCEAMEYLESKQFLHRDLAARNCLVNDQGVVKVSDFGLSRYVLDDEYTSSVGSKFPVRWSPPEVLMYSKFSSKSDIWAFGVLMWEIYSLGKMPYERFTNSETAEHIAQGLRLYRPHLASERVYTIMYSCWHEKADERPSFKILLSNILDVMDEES
Excerpt: A molecular probe assay was used to calculate the percent irreversible occupancy of total BTK.

[3] = Functional observation battery (GLP safety pharmacology); settings: doses through 300 mg/kg
CD4^+ T cells = experiment: Th17 and Treg development from CD4+ T cells; format: cell-based
Procedure: Enriched CD4^+ T cells are plated on 24-well culture dishes that have been precoated 2 hr with 250 μL anti-TCRβ (0.5 μg/mL) plus anti-CD28 (5 μg/mL) at 37° C. in PBS. The cells are then supplemented with media containing BTK inhibitors along with the skewing cytokines as indicated in the following. The Th17 and Treg cultures are grown for 4 days before analysis. The cells are maintained for an additional 3 days with skewing cytokines (Th17; 20 ng/mL IL-6, 0.5 ng/mL TGF-β, 5 μg/mL IL-4, 5 μg/mL IFN-γ and Treg; 0.5 ng/mL TGF-β, 5 μg/mL IL-4, 5 μg/mL IFN-γ) and are supplemented with IL2 as a growth factor.

CC#CC(=O)N1CCC[C@H]1c1nc(-c2ccc(C(=O)Nc3ccccn3)cc2)c2c(N)nccn12 [Formula (XVIII), (S)-4-(8-amino-3-(1-(but-2-ynoyl)pyrrolidin-2-yl)imidazo[1,5-a]pyrazin-1-yl)-N-(pyridin-2-yl)benzamide]
CD8^+ T cell function as % cytotoxicity (CD8^+ T cells): no effect on CD8^+ T cell function
CD8+ T cells (ID8 ovarian cancer; mouse, in vivo): increase in CD8^+ T cells
immunosuppressive tumor associated Tregs (ID8 ovarian cancer; mouse, in vivo): significant reduction in immunosuppressive tumor associated Tregs
ID8 ovarian cancer growth (ID8 ovarian cancer; syngeneic murine model, versus vehicle): impairs ID8 ovarian cancer growth
B regulatory cells (Bregs) (ID8 ovarian cancer; tumor-bearing mice): significant reduction in B regulatory cells (Bregs)
total B cells (ID8 ovarian cancer; tumor-bearing mice): significant reduction in total B cells
immunosuppressive tumor associated lymphocytes (ID8 ovarian cancer; tumor-bearing mice, versus vehicle): significant reduction in immunosuppressive tumor associated lymphocytes
immunosuppressive tumor associated MDSCs (KrasL2 NSCLC): significant reduction in immunosuppressive tumor associated MDSCs
immunosuppressive tumor associated TAMs (KrasL2 NSCLC): significant reduction in immunosuppressive tumor associated TAMs
immunosuppressive tumor associated Tregs (KrasL2 NSCLC): significant reduction in immunosuppressive tumor associated Tregs
glutathione binding and depletion [1]: binds to glutathione but does not deplete glutathione
CYP responsible for loss of parent drug (CYP3A4): metabolized by CYP3A4
drug-drug interaction potential via CYP enzymes (CYP3A4): very unlikely to cause clinical drug-drug interactions
immunosuppressive tumor associated myeloid cells and Tregs [2]: reduce immunosuppressive tumor associated myeloid cells and Tregs
tumor volume versus vehicle [2]: statistically significant reductions in tumor volume
inhibition of EGFR phosphorylation (EGFR): no inhibition; also recorded: does not inhibit EGFR
effect on rituximab-mediated ADCC (primary CLL cells): not inhibited
PD, % (relapsed/refractory CLL; 100 mg BID (N = 3)): (0) %
PR, % (relapsed/refractory CLL; 100 mg BID (N = 3)): (100) %
PD, % (relapsed/refractory CLL; 100 mg QD (N = 8)): (0) %
PR, % (relapsed/refractory CLL; 100 mg QD (N = 8)): (88) %
PD, % (relapsed/refractory CLL; 175 mg QD (N = 8)): (0) %
PR + L, % (relapsed/refractory CLL; 175 mg QD (N = 8)): (37) %
PR, % (relapsed/refractory CLL; 175 mg QD (N = 8)): (63) %
PD, % (relapsed/refractory CLL; 250 mg QD (N = 7)): (0) %
PR + L, % (relapsed/refractory CLL; 250 mg QD (N = 7)): (29) %
PR, % (relapsed/refractory CLL; 250 mg QD (N = 7)): (71) %
PD, % (relapsed/refractory CLL; 400 mg QD (N = 5)): (0) %
PR + L, % (relapsed/refractory CLL; 400 mg QD (N = 5)): (40) %
PR, % (relapsed/refractory CLL; 400 mg QD (N = 5)): (40) %
PD, % (relapsed/refractory CLL; All Cohorts (N = 31)): (0) %
PR + L, % (relapsed/refractory CLL; All Cohorts (N = 31)): (23) %
PR, % (relapsed/refractory CLL; All Cohorts (N = 31)): (71) %
time of treatment to reach the same median % change in SPD (relapsed/refractory CLL; CLL patients): 7 months
Headache, treatment-related adverse event (relapsed/refractory CLL; Grade 1/2, All (N = 44)): 7 (16) n (%)
Diarrhea, treatment-related adverse event (relapsed/refractory CLL; Grade 1, All (N = 44)): 4 (9) n (%)
Increased tendency to bruise, treatment-related adverse event (relapsed/refractory CLL; Grade 1, All (N = 44)): 6 (14) n (%)
Petechiae, treatment-related adverse event (relapsed/refractory CLL; Grade 1, All (N = 44)): 3 (7) n (%)
dose-limiting toxicities (DLTs) (relapsed/refractory CLL; human, in vivo): No DLTs were observed
grade of adverse events (relapsed/refractory CLL; human, in vivo): only grade 1 AEs were observed
lymphocytosis (relapsed/refractory CLL; human, in vivo): A lack of lymphocytosis was observed
plasma CXCL12 and CCL2 levels (relapsed/refractory CLL; human, in vivo): significant decrease
treatment-related serious adverse events (SAEs) (relapsed/refractory CLL; human, in vivo): No treatment-related serious adverse events (SAEs) were observed
progression in patients with the 17p deletion (relapsed/refractory CLL; to date): no 17p patients have progressed
BTK occupancy in granulocytic and monocytic MDSC compartment (BTK): Complete BTK occupancy
neurobehavioral effects or body temperature [3]: no adverse effects
effect on Th17 and Treg development (CD4^+ T cells): no adverse effects on Th17 and Treg development

— US20170239351A1, “Therapeutic Combinations of a BTK Inhibitor, a PI3K Inhibitor, a JAK-2 Inhibitor, a PD-1 Inhibitor, and/or a PD-L1 Inhibitor” (Acerta Pharma B.V., priority 2014, published 2017)
